Reference: patent publication US9567322B2, “Substituted tetrahydropyrans and method of use” (AbbVie S.á.r.l., priority 2014, dated 2017)

Target: T1, F508delCFTR (Homo sapiens, UniProt P13569, DEL508-508)
T1 construct: expressed in transfected cells; host or cells: CFBE41o- (CFBE41o-F508delCFTR-HRP), doxycycline-inducible
Experiment: Cell Surface Expression-Horse Radish Peroxidase (CSE-HRP) assay
Format: cell-based
Settings: CFBE41o-F508delCFTR-HRP cells; for EC50: cell surface expression, luminescence readout, 18-24 hours at 33° C., highest concentration tested 20 μM, 8-point curve; for Maximum % activity: maximum at any tested concentration, normalized to on-plate positive control (3 μM) and DMSO
Source text: Cell Surface Expression-Horse Radish Peroxidase (CSE-HRP) Assay:
A cellular assay for measuring the F508delCFTR cell surface expression after correction with test compounds was developed in human lung derived epithelial cell line (CFBE41o-) (Veit G et al, (2012) Mol Biol Cell. 23(21): 4188-4202). This was achieved by expressing the F508delCFTR mutation along with a horseradish peroxidase (HRP) in the fourth exofacial loop and then measuring the HRP activity using luminescence readout from these cells, CFBE41o-F508delCFTR-HRP, that were incubated overnight with the test corrector compounds. Briefly, for this primary assay, the CFBE41o-F508delCFTR-HRP cells were plated in 384-well plates (Greiner Bio-one; Cat 781080) at 4,000 cells/well along with 0.5 μg/mL doxycycline to induce the F508delCFTR-HRP expression and further incubated at 37° C., 5% CO2 for 72 hours. The test compounds were then added at the required concentrations and further incubated for 18-24 hours at 33° C. The highest concentration tested was 20 μM with an 8-point concentration response curve using a 3-fold dilution. Three replicate plates were run to determine one EC50. All plates contained negative controls (dimethyl sulfoxide, DMSO) and positive controls (3 μM of 3-[(2R,4R)-4-({[1-(2,2-difluoro-1,3-benzodioxol-5-yl)cyclopropyl]carbonyl}amino)-7-methoxy-3,4-dihydro-2H-chromen-2-yl]benzoic acid) as well as on-plate concentration response of the positive control. Post incubation, the plates were washed 5× times with Dulbecco's phosphate buffered saline (DPBS), followed by the addition of the HRP substrate, luminol (50 μL), and measuring the HRP activity using luminescence readout on EnVision® Multilabel Plate Reader (Perkin Elmer; product number 2104-0010). The raw counts from the experiment are analyzed using Accelrys® Assay Explorer v3.3.
Z′ greater than 0.5 was used as passing quality control criteria for the plates.
The Z′ is defined as: 1−[3*SDPositive Control+3*SDNegative Control/Absolute(MeanPositive Control−MeanNegative Control)],
wherein “SD” is standard deviation.
The % activity measured at each of the 8 test concentrations of the test compound was normalized to the on-plate positive control using the following formula: % activity=[(test compound response−DMSO response)/(positive control response−DMSO response)]*100
The maximum % activity achieved for the test compound at any tested concentration is presented in Table 1 along with the EC50 calculated using the following general sigmoidal curve with variable Hill slope equation (described as Model 42 in the Accelrys® Assay Explorer v3.3 software): y=(a−d)/(1+(x/c)^b)+d General sigmoidal curve with concentration, response, top, bottom, EC50 and Hill slope.
This model describes a sigmoidal curve with an adjustable baseline, a. The equation can be used to fit curves where response is either increasing or decreasing with respect to the independent variable, “x”.
“x” is a concentration of drug under test.
“a” is the maximum response, and “d” is the minimum response
“c” is the inflection point (EC50) for the curve. That is, “y” is halfway between the lower and upper asymptotes when x=c.
“b” is the slope-factor or Hill coefficient. The sign of b is positive when the response increases with increasing dose and is negative when the response decreases with increasing dose (inhibition).

T1 sequence (P13569 with tags, fused parts or gaps DEL508-508): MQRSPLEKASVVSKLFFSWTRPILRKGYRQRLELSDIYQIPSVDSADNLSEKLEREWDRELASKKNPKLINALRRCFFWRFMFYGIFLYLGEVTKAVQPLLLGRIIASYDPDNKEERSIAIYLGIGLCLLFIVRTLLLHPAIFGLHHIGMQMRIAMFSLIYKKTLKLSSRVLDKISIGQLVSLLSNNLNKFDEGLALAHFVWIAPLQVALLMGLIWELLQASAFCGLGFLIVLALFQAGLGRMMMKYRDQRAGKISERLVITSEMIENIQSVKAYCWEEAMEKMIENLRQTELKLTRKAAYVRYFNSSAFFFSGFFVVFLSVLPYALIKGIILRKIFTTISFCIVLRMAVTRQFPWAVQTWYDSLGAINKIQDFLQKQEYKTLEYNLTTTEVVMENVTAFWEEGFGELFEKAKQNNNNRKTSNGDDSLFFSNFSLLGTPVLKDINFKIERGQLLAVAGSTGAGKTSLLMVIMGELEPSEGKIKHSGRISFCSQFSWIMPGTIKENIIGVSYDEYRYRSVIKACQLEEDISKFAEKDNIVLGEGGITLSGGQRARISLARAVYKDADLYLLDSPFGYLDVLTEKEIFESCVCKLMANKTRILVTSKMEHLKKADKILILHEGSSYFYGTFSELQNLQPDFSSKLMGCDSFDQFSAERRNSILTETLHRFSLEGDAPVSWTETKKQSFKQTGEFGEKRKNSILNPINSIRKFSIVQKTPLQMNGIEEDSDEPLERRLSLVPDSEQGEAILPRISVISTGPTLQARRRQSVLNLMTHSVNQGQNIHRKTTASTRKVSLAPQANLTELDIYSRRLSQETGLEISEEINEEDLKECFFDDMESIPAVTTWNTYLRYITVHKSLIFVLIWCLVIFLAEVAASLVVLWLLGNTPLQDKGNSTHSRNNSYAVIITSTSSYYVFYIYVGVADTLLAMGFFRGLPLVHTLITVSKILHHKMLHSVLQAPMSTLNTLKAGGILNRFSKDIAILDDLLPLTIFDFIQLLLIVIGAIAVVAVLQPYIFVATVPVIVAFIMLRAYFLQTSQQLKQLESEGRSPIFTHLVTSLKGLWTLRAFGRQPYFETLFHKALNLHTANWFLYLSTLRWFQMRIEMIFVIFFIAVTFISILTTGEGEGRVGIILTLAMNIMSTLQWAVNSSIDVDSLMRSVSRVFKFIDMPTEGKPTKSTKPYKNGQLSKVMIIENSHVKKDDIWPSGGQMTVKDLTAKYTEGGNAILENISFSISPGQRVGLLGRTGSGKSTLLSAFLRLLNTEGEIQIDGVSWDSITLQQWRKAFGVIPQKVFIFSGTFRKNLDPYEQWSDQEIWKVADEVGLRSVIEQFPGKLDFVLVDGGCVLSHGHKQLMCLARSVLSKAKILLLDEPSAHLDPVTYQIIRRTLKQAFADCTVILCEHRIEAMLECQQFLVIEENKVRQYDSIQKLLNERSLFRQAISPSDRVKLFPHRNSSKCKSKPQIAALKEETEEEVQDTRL

| Structure (SMILES) | EC50 | Maximum % activity |
| --- | --- | --- |
| O=C(N[C@@H]1CCO[C@@H](c2cccc(CO)c2)C1)C1(c2ccc3c(c2)OC(F)(F)O3)CC1 (racemic) [Example 6, rac-1-(2,2-difluoro-1,3-benzodioxol-5-yl)-N-{(2R,4R)-2-[3-(hydroxymethyl)phenyl]tetrahydro-2H-pyran-4-yl}cyclopropanecarboxamide] | 5150 nM | 32% |
| CC(=O)c1cccc([C@H]2C[C@@H](NC(=O)C3(c4ccc5c(c4)OC(F)(F)O5)CC3)CCO2)c1 (racemic) [Example 8, rac-N-[(2R,4S)-2-(3-acetylphenyl)tetrahydro-2H-pyran-4-yl]-1-(2,2-difluoro-1,3-benzodioxol-5-yl)cyclopropanecarboxamide] | 1390 nM | 57% |
| O=C(N[C@H]1CCO[C@@H](c2cccc(CO)c2)C1)C1(c2ccc3c(c2)OC(F)(F)O3)CC1 (racemic) [Example 9, rac-1-(2,2-difluoro-1,3-benzodioxol-5-yl)-N-{(2R,4S)-2-[3-(hydroxymethyl)phenyl]tetrahydro-2H-pyran-4-yl}cyclopropanecarboxamide] | 2260 nM | 61% |
| COC(=O)c1ccccc1[C@H]1C[C@@H](NC(=O)C2(c3ccc4c(c3)OC(F)(F)O4)CC2)CCO1 (racemic) [Example 11, methyl rac-2-[(2R,4S)-4-({[1-(2,2-difluoro-1,3-benzodioxol-5-yl)cyclopropyl]carbonyl}amino)tetrahydro-2H-pyran-2-yl]benzoate] | 900 nM | 116% |
| COC(=O)c1ccc([C@H]2C[C@@H](NC(=O)C3(c4ccc5c(c4)OC(F)(F)O5)CC3)CCO2)cc1 (racemic) [Example 13, methyl rac-4-[(2R,4S)-4-({[1-(2,2-difluoro-1,3-benzodioxol-5-yl)cyclopropyl]carbonyl}amino)tetrahydro-2H-pyran-2-yl]benzoate] | 1160 nM | 110% |
| COC(=O)c1cccc([C@H]2C[C@H](NC(=O)C3(c4ccc5c(c4)OC(F)(F)O5)CC3)C[C@@H](c3ccccc3)O2)c1 (racemic) [Example 22, methyl rac-3-[(2R,4R,6S)-4-({[1-(2,2-difluoro-1,3-benzodioxol-5-yl)cyclopropyl]carbonyl}amino)-6-phenyltetrahydro-2H-pyran-2-yl]benzoate] | 2180 nM | 63% |
| COC(=O)c1ccc([C@H]2C[C@H](NC(=O)C3(c4ccc5c(c4)OC(F)(F)O5)CC3)CC(C)(C)O2)cc1 (racemic) [Example 32, methyl rac-4-[(2R,4S)-4-({[1-(2,2-difluoro-1,3-benzodioxol-5-yl)cyclopropyl]carbonyl}amino)-6,6-dimethyltetrahydro-2H-pyran-2-yl]benzoate] | 4120 nM | 69% |

Now from value to compound:

| EC50 | Maximum % activity | Structure (SMILES) |
| --- | --- | --- |
| 1700 nM | 62% | O=C(N[C@H]1CCO[C@@H](c2ccccc2)C1)C1(c2ccc3c(c2)OC(F)(F)O3)CC1 (racemic) [Example 1, rac-1-(2,2-difluoro-1,3-benzodioxol-5-yl)-N-[(2R,4S)-2-phenyltetrahydro-2H-pyran-4-yl]cyclopropanecarboxamide] |
| 850 nM | 71% | O=C(O)c1cccc([C@H]2C[C@@H](NC(=O)C3(c4ccc5c(c4)OC(F)(F)O5)CC3)CCO2)c1 (racemic) [Example 2, rac-3-[(2R,4S)-4-({[1-(2,2-difluoro-1,3-benzodioxol-5-yl)cyclopropyl]carbonyl}amino)tetrahydro-2H-pyran-2-yl]benzoic acid] |
| 1410 nM | 64% | COC(=O)c1cccc([C@H]2C[C@@H](NC(=O)C3(c4ccc5c(c4)OC(F)(F)O5)CC3)CCO2)c1 (racemic) [Example 3, methyl rac-3-[(2R,4S)-4-({[1-(2,2-difluoro-1,3-benzodioxol-5-yl)cyclopropyl]carbonyl}amino)tetrahydro-2H-pyran-2-yl]benzoate] |
| 3110 nM | 23% | COC(=O)c1cccc([C@H]2C[C@H](NC(=O)C3(c4ccc5c(c4)OC(F)(F)O5)CC3)CCO2)c1 (racemic) [Example 4, methyl rac-3-[(2R,4R)-4-({[1-(2,2-difluoro-1,3-benzodioxol-5-yl)cyclopropyl]carbonyl}amino)tetrahydro-2H-pyran-2-yl]benzoate] |
| ≥ 20000 nM | 13% | O=C(O)c1cccc([C@H]2C[C@H](NC(=O)C3(c4ccc5c(c4)OC(F)(F)O5)CC3)CCO2)c1 (racemic) [Example 5, rac-3-[(2R,4R)-4-({[1-(2,2-difluoro-1,3-benzodioxol-5-yl)cyclopropyl]carbonyl}amino)tetrahydro-2H-pyran-2-yl]benzoic acid] |
| 5560 nM | 27% | CC(C)(O)c1cccc([C@H]2C[C@H](NC(=O)C3(c4ccc5c(c4)OC(F)(F)O5)CC3)CCO2)c1 (racemic) [Example 7, rac-1-(2,2-difluoro-1,3-benzodioxol-5-yl)-N-{(2R,4R)-2-[3-(2-hydroxypropan-2-yl)phenyl]tetrahydro-2H-pyran-4-yl}cyclopropanecarboxamide] |
| 2090 nM | 58% | CC(C)(O)c1cccc([C@H]2C[C@@H](NC(=O)C3(c4ccc5c(c4)OC(F)(F)O5)CC3)CCO2)c1 (racemic) [Example 10, rac-1-(2,2-difluoro-1,3-benzodioxol-5-yl)-N-{(2R,4S)-2-[3-(2-hydroxypropan-2-yl)phenyl]tetrahydro-2H-pyran-4-yl}cyclopropanecarboxamide] |
| 7630 nM | 108% | O=C(O)c1ccccc1[C@H]1C[C@@H](NC(=O)C2(c3ccc4c(c3)OC(F)(F)O4)CC2)CCO1 (racemic) [Example 12, rac-2-[(2R,4S)-4-({[1-(2,2-difluoro-1,3-benzodioxol-5-yl)cyclopropyl]carbonyl}amino)tetrahydro-2H-pyran-2-yl]benzoic acid] |
| 850 nM | 104% | COC(=O)c1cccc([C@H]2C[C@@H](NC(=O)C3(c4ccc5c(c4)OC(F)(F)O5)CC3)C[C@@H](c3ccccc3)O2)c1 (racemic) [Example 23, methyl rac-3-[(2R,4S,6S)-4-({[1-(2,2-difluoro-1,3-benzodioxol-5-yl)cyclopropyl]carbonyl}amino)-6-phenyltetrahydro-2H-pyran-2-yl]benzoate] |
| 2020 nM | 108% | O=C(O)c1cccc([C@H]2C[C@H](NC(=O)C3(c4ccc5c(c4)OC(F)(F)O5)CC3)C[C@@H](c3ccccc3)O2)c1 (racemic) [Example 25, rac-3-[(2R,4R,6S)-4-({[1-(2,2-difluoro-1,3-benzodioxol-5-yl)cyclopropyl]carbonyl}amino)-6-phenyltetrahydro-2H-pyran-2-yl]benzoic acid] |
| 3890 nM | 102% | CC1(C)C[C@@H](NC(=O)C2(c3ccc4c(c3)OC(F)(F)O4)CC2)C[C@H](c2ccc(C(=O)O)cc2)O1 (racemic) [Example 33, rac-4-[(2R,4S)-4-({[1-(2,2-difluoro-1,3-benzodioxol-5-yl)cyclopropyl]carbonyl}amino)-6,6-dimethyltetrahydro-2H-pyran-2-yl]benzoic acid] |
